PMC5035006, “Binding and Inhibition of Spermidine Synthase from Plasmodium falciparum and Implications for In Vitro Inhibitor Testing” (PLoS ONE, 2016)
Where “and” joins values, the source holds several entries; their conditions need not be identical. Equal values may be shown once. Read-outs that look alike come from different tables or passages of the source. One block for each molecule: values may come before it.

Key:
[1] = target: T1, PfSpdS (Plasmodium falciparum, UniProt Q8II73); assay: biochemical; type: binding
Method: Protein samples of 1 mg/ml were dialyzed overnight at 4°C against buffer containing 100 mM HEPES, pH 7.5, 250 mM NaCl. Protein concentration was determined by UV absorption (A280 = 1 for 1.3 mg/mL) immediately before loading into the calorimeter cell. […] The protein at a concentration of 0.8–30 μM was loaded into the sample cell of a VP-ITC microcalorimeter (MicroCal, Inc.). All measurements were performed at 25°C with 25 injections of the ligand of 10 μl each delivered in 20 s with 240 s delays between injections. […] Titrations of ligands into dialysis buffer were performed additionally and in case of non-negligible dilution heat the dilution profile(s) were subtracted point-by-point from the reaction profile. The dilution factor was taken into account for the binding curve fitting. Prior to titration of a second ligand into protein in presence of a first ligand, titration of dcAdoMet or MTA was carried out to saturating concentrations. […] The ligand- and buffer-subtracted integrated binding data were fitted using a single-site binding model in MicroCal Origin software.
The solution conditions for which the reported parameter values apply are 100 mM HEPES pH 7.5, 250 mM NaCl, 25°C.

[2] = target: T1, PfSpdS; parameters: method as in PMID 18410081; conditions: cited from earlier work
[3] = target: T1, PfSpdS; assay: biochemical; conditions: for inhibitory effects on PfSpdS activity: at concentrations of 0.1 or 1 mM, data not shown
Method: The enzyme assays were incubated for 30 min at 37°C and terminated by addition of 100 μl of 0.4 M HClO4. The amount of spermidine formed was determined by HPLC with θ-phthaldialdehyde as the reagent essentially as described by Seiler & Knödgen.
Determination of IC50 values was performed in standard assays containing increasing concentrations of inhibitors.

[4] = target: human SpdS; parameters: method as in PMID 21898642; conditions: 20 mM sodium phosphate pH 7.5, 50 mM NaCl, 25°C; cited from earlier work
[5] = target: T1, PfSpdS; conditions: cited from earlier work
[6] = test system: P. falciparum; parameters: method as in PMID 15913804; conditions: at micromolar concentrations; cited from earlier work
[7] = test system: mammalian SpdS; conditions: cited from earlier work
[8] = free PfSpdS, 100 mM HEPES pH 7.5, 250 mM NaCl, 25°C
[9] = free PfSpdS, 100 mM HEPES pH 7.5, 250 mM NaCl, 25°C, read-out: KD
[10] = KD, free PfSpdS, 100 mM HEPES pH 7.5, 250 mM NaCl, 25°C
[11] = KD, PfSpdS saturated with MTA (ligand 1), values for ligand 2
[12] = PfSpdS saturated with MTA (ligand 1), values for ligand 2
[13] = PfSpdS saturated with MTA (ligand 1), values for ligand 2, read-out: KD
[14] = free PfSpdS, listed as with footnote mark a
[15] = free PfSpdS, listed as with footnote mark b: fit was done setting N = 1

T1 sequence (Q8II73 entry or part of it): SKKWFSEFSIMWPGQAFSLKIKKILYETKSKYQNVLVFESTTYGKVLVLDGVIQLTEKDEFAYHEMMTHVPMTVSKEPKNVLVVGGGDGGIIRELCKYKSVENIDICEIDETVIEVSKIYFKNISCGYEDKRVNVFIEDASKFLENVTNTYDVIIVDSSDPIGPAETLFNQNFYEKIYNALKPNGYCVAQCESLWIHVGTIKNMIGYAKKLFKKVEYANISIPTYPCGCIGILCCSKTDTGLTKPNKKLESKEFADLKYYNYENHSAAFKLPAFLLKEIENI

- ΔH [1, 8]: 1.5 ± 0.3 kcal/mol
- ΔS [1, 8]: 27.1 cal/mol/deg
- Kd [1, 9]: 15.2 ± 8.2 µM
- IC50 ([3]; PfSpdS assays, L. Persson, unpublished results, read-out: IC50): > 100 µM
- inhibitory effects on PfSpdS activity [3]: no or only minor inhibitory effects
- IC50 ([3]; read-out: IC50): > 1000 µM
Molecule: NCCCCCc1nc2ccccc2[nH]1 [BIPA, 5-(1H-benzimidazol-2-yl)pentan-1-amine]
- binding to the enzyme by NMR spectroscopy (in words) [2]: bind strongly

Molecule: C[S+](CCCN)CC1OC(n2cnc3c(N)ncnc32)C(O)C1O (stereo not drawn) [dcAdoMet, decarboxylated S-adenosylmethionine]
- Kd [1, 10]: 3.7 ± 0.7 µM
- ΔH [1, 8]: -2.4 ± 0.2 kcal/mol
- ΔS [1, 8]: 16.7 cal/mol/deg

Molecule: NCCCSC[C@H]1O[C@@H](n2cnc3c(N)ncnc32)[C@H](O)[C@@H]1O [decarboxylated S-adenosylhomocysteine]
- Kd [4]: 1100 nM

Molecule: NCCCCN [Putrescine, putrescine]
- Kd [1, 11]: 59.5 ± 8.2 µM
- Kd [1, 10]: > 300 µM
- ΔH [1, 12]: -12.4 ± 0.9 kcal/mol
- ΔS [1, 12]: -22.4 cal/mol/deg
- affinity for free PfSpdS (in words) ([1]; free PfSpdS, detection limit KD ~ 300 μM): no measurable affinity
- Km ([5]; read-out: Km for putrescine, 29-residue-truncated PfSpdS): 52 µM

- ΔH [1, 8]: -5.5 ± 0.2 kcal/mol
- ΔS [1, 8]: 6.9 cal/mol/deg
- Kd [1, 9]: 2.8 ± 0.5 µM
- Inhibition type [3]: mixed-type inhibition with putrescine
- Ki uncompetitive [3]: 12.2 µM
- Ki ([3]; read-out: Ki competitive): 3.4 µM
- IC50 ([3]; read-out: predicted IC50 from Eq (2)): 10 µM
Molecule: NCCCCCC(CCN)SCC1OC(n2cnc3c(N)ncnc32)C(O)C1O (stereo not drawn) [AdoDATO, S-adenosyl-3-thio-1,8-diaminooctane]

- ΔH [1, 12]: -0.6 ± 0.1 kcal/mol
- ΔS [1, 12]: 28.4 cal/mol/deg
- Kd [1, 13]: ~0.3 µM and 0.3 µM
- ΔH [1, 14]: 51.8 ± 2.5 kcal/mol
- ΔS [1, 14]: 196 cal/mol/deg
- Kd ([1]; free PfSpdS, listed as with footnote mark a, read-out: KD): 8.4 ± 0.7 µM
- ΔH [1, 15]: 17.6 ± 9.0 kcal/mol
- ΔS [1, 15]: 82.8 cal/mol/deg
- Kd ([1]; free PfSpdS, listed as with footnote mark b: fit was done setting N = 1, read-out: KD): 6.1 ± 1.6 µM
Molecule: NCCCN[C@H]1CC[C@H](N)CC1 [NACD]

Molecule: NCCCCNCCCN [Spermidine, spermidine]
- affinity for free PfSpdS (in words) [1]: no measurable affinity
- Kd [1, 11]: 1.2 ± 0.3 µM
- Kd [1, 10]: > 300 µM
- ΔH [1, 12]: -6.1 ± 0.3 kcal/mol
- ΔS [1, 12]: 6.74 cal/mol/deg

Molecule: 5′-methylthioadenosine [MTA]
- ΔH [1, 8]: -2.7 ± 0.3 kcal/mol
- ΔS [1, 8]: 18.6 cal/mol/deg
- Kd [1, 9]: 0.9 ± 0.5 µM
- IC50 ([5]; 100 μM dcAdoMet, 200 μM putrescine): 160 µM and 159 µM
- Inhibition type [5]: product inhibition

Molecule: C[C@H]1CC[C@H](N)CC1 [4MCHA, trans-4-methylcyclohexylamine]
- Inhibition type [5]: competitive inhibitor with respect to putrescine
- Ki [5]: 180 nM
- inhibition of P. falciparum cell growth in vitro (in words) [6]: strongly inhibit

- affinity for free PfSpdS (in words) [1]: no measurable affinity
- ΔH [1, 12]: -3.5 ± 0.2 kcal/mol
- ΔS [1, 12]: 7.84 cal/mol/deg
- Kd [1, 13]: 45.3 ± 5.1 µM
- Kd ([1]; PfSpdS saturated with dcAdoMet (ligand 1), values for ligand 2, read-out: KD): > 300 µM
- Kd [1, 9]: > 300 µM
- inhibitory effects on PfSpdS activity [3]: no or only minor inhibitory effects
- IC50 ([3]; read-out: IC50): > 1000 µM
Molecule: NCc1ccc(N)cc1 [4AMA, 4-aminomethylaniline]

Molecule: Cc1ccc(N)cc1 [4MAN, 4-methylaniline]
- affinity for free PfSpdS (in words) [1]: no measurable affinity
- Kd [1, 11]: > 300 µM
- Kd ([1]; KD, PfSpdS saturated with dcAdoMet (ligand 1), values for ligand 2): 7.7 ± 1.2 µM
- Kd [1, 10]: > 300 µM
- affinity to PfSpdS in presence of MTA (in words) ([1]; PfSpdS saturated with MTA, detection limit KD ~ 300 μM): no detectable affinity
- IC50 [7]: 108 µM
- IC50 [3]: 23 µM
- Ki [3]: 8.2 µM
- Inhibition type ([3]; Lineweaver-Burke plots, 0.1 mM dcAdoMet): competitive with putrescine
